Converted amounts (≈) assume the structure as drawn. Residues, ends and D or L forms follow the SMILES beside them.
Assays:
[1] = test system: Human lung cancer A549 tumor model; assay: Inhibition on in vivo growth of tumor in combination with DDP, A549 model; conditions: for Tumor inhibitor rate (%): A549, day 21
Procedure: In vitro cultured tumor cells in exponential phase and in good state were formulated to a 100 μl cell suspension containing 5×10^6 tumor cells. The suspension was subcutaneously inoculated to nude mice. Well-grown solid tumors were obtained 15 days later and cut into uniform pieces of about 3 mm under sterile condition. Each nude mouse was inoculated by one piece through a trocar. Mice were re-grouped according the tumor size 10-14 days after inoculation and animals having too large and too small tumor were excluded from the test. […] Test drugs were administered to each group according to the experimental protocol. The major axis (a) and minor axis (b) of the tumor were measured twice a week. Animals were sacrificed at the end of the test. The tumor was taken out, weighed and photos were taken. Tumor volume (TV)=½×a×b^2; Relative tumor volume (RTV)=Vt/Vo, wherein Vo is the tumor volume measured before grouping (one day before administration of the test drug), and Vt is the tumor volume measured at each time. Tumor inhibition rate (%)=(1−T/C)×100%, wherein T is the average tumor volume of the treatment group and C is the average tumor volume of the negative control group.
The amino acid sequence of recombination endostatin (“endostatin”) was set forth in SEQ ID NO: 1, and the amino acid sequence of the marketed drug Endostar (“endostar”) was set forth in SEQ ID NO: 10. Human lung cancer A549 tumor model was constructed according to the method described in Example 10. The test contained 7 groups, with 6 animals in each group. The molar dose of the polypeptides was basically equal to the molar dose of endostatin.

[2] = test system: Human Umbilical Vein Endothelial Cell (HUVEC); format: cell-based
Procedure: 20 cm umbilical cord adjacent to fetus was taken, cleaned by washing, ligated at both ends, placed into 150 ml preservation solutions for umbilical cord, and stored in a 4° C. refrigerator for digestion for 6 hours. The umbilical cord was inspected to remove the damaged portion. The umbilical vein was thoroughly cleaned by washing and then 10 ml collagenase solution was injected. Then the umbilical vein was transferred to a 37° C. incubator for digestion for 15 minutes. The umbilical cord was removed and the digested solution was recovered. The digested solution was washed by PBS and centrifuged. After centrifugation, the cells were culture by re-suspension.
(§1) Inhibition of cell growth was detected by a MTT method, which is based on the principle that succinate dehydrogenase in the mitochondria of the live cells could reduce the exogenous MTT (3-(4,5-dimethyl-2-thiazolyl)-2,5-diphenyl-tetrazolium bromide) to a […] Formazan which is a blue-violet crystal, and precipitates in the cells, while the death cells could not reduce MTT. DMSO could dissolve Formazan in the cells. Absorbance value of the solution was determined at 490/570 nm by microplate reader, which could indirectly indicate the amount of the live cells. The amount of the crystal from MTT is proportional to the amount of the cells within a certain range of cell number. The supernate from the HUVEC or tumor cells in exponential phase was removed and the cells were washed by PBS once. 1 ml 0.25% trypsin (4° C.) was added for digestion at 37° C. for 2 min. Then the supernate was added for neutralization and the cells were dispersed to form a suspension and the suspension was centrifuged at 1000 rpm for 3 min. The supernate was removed and 5 ml culture mediums were added for resuspension. Cells were inoculated in a 48-well plate by 500 ul/well at the concentration of 3×10^4/ml and then incubated under 5% CO2, 37° C. for 24 hours. The supernate was removed and a culture medium containing polypeptide (Zn^2+ in the culture medium was present at the concentration of 17.39 μmol/L) was added for further incubation for 48 hours. Supernate in each well was carefully removed. The well was gently washed by PBS once in an amount of 450 μl/well. 450 μl MTT culture mediums were added into each well for further cultivation for 4 hours. The supernate was carefully discarded. DMSO was added in an amount of 450 μl/well and then the plate was placed in a shaking bed for oscillation for 10 min in dark. 150 μl supernates were transferred to a 96-well ELISA plate and absorbance value of each well was detected at 490 nm and 570 nm by the microplate reader.

tumor cell HepG2 = format: cell-based
Procedure: as §1

LS174T (Colon cancer) = format: cell-based
Procedure: as §1
(§2) P2 (SEQ ID NO:2) and P2T2S18 (SEQ ID NO:6) were tested for their in vitro inhibition on SMMC7221, SPC-A-1, A549, LS174T, BEL7402, CK-MES-1 and BxPC-3 at a polypeptide concentration of 1 mg/ml according to the method described in Example 3. Results are shown in FIG. 9 and the following Table. […] All IC50 concentrations for P2T2S18 are less than 1/10 IC50 concentration of P2.

SPC-A-1 (lung carcinoma) = format: cell-based; conditions: for IC50: SPC-A-1; for Cell Survival (%) at a polypeptide concentration of 1 mg/ml: SPC-A-1, 1 mg/ml
Procedure: as §1, §2

A549 (lung carcinoma) = assay: MTT in vitro inhibition of A549; format: cell-based; conditions: for IC50: A549; for Cell Survival (%) at a polypeptide concentration of 1 mg/ml: A549, 1 mg/ml
Procedure: as §1, §2

[3] = test system: CK-MES-1 (lung squamous cell carcinoma); assay: MTT in vitro inhibition of CK-MES-1; format: cell-based; conditions: for IC50: CK-MES-1; for Cell Survival (%) at a polypeptide concentration of 1 mg/ml: CK-MES-1, 1 mg/ml
Procedure: as §1, §2

BEL7402 (Liver cancer) = assay: MTT in vitro inhibition of BEL7402; format: cell-based; conditions: for IC50: BEL7402; for Cell Survival (%) at a polypeptide concentration of 1 mg/ml: BEL7402, 1 mg/ml
Procedure: as §1, §2

SMMC7721 (Liver cancer) = assay: MTT in vitro inhibition of SMMC7721; format: cell-based; conditions: for IC50: SMMC7721; for Cell Survival (%) at a polypeptide concentration of 1 mg/ml: SMMC7721, 1 mg/ml
Procedure: as §1, §2

[4] = test system: BxPC-3 (pancreatic cancer); assay: MTT in vitro inhibition of BxPC-3; format: cell-based; conditions: for IC50: BxPC-3; for Cell Survival (%) at a polypeptide concentration of 1 mg/ml: BxPC-3, 1 mg/ml
Procedure: as §1, §2

[5] = test system: lung cancer cell line SPC-A-1; assay: In vitro death of SPC-A-1 tumor cell observed under optical microscope; format: cell-based; conditions: SPC-A-1, 2.5 mg/ml
Procedure: Polypeptides were tested for their effect in inducing cell death of lung cancer cell line SPC-A-1 at a polypeptide concentration of 2.5 mg/ml according to the method described in Example 3. Cells were observed under an optical microscope over 24 hours and photos were taken. P2 exerts its function 4 hours after being added into the culture medium. […] On the contrary, they extremely swelled. 4 hours later cells further swelled and began to disintegrate at 8 hours. […] The manner of P2T2S18 caused cell death is very surprising. Currently, it is unable to determine what manner this kind of cell death belongs to. No report is found in papers as well. However, this mode of cell death is obviously different from that caused by P2. Together with the results in Example 7, it can conclude that P2T2S18 not only has a biological activity obviously higher than P2, but also has a manner causing cell death obviously different from that of P2.

[6] = test system: Human liver cancer BEL7404 tumor model; format: in vivo; conditions: for Tumor inhibitor rate (%): BEL7404, day 21, polypeptides 15 mg/kg sc 2 times per day 21 days, endostatin/endostar 50 mg/kg sc, CTX 30 mg/kg ip 7 days
Procedure: In vitro cultured tumor cells in exponential phase and in good state were formulated to a 100 μl cell suspension containing 5×10^6 tumor cells. The suspension was subcutaneously inoculated to nude mice. Well-grown solid tumors were obtained 15 days later and cut into uniform pieces of about 3 mm under sterile condition. Each nude mouse was inoculated by one piece through a trocar. Mice were re-grouped according the tumor size 10-14 days after inoculation and animals having too large and too small tumor were excluded from the test. The average tumor volume for each group was basically identical. Test drugs were administered to each group according to the experimental protocol. The major axis (a) and minor axis (b) of the tumor were measured twice a week. Animals were sacrificed at the end of the test. The tumor was taken out, weighed and photos were taken. Tumor volume (TV)=½×a×b^2; Relative tumor volume (RTV)=Vt/Vo, wherein Vo is the tumor volume measured before grouping (one day before administration of the test drug), and Vt is the tumor volume measured at each time. Tumor inhibition rate (%)=(1−T/C)×100%, wherein T is the average tumor volume of the treatment group and C is the average tumor volume of the negative control group.
The amino acid sequence of recombination endostatin (“endostatin”) was set forth in SEQ ID NO: 1, and the amino acid sequence of the marketed drug Endostar (“endostar”) was set forth in SEQ ID NO: 10. Human liver cancer BEL7404 tumor model was constructed according to the method described in Example 10. The test contained 6 groups, with 6 animals in each group, except for the negative control group which contained 9 animals. The molar dose of the polypeptides was basically equal to the molar dose of endostatin. The results are shown in FIGS. 11a and 11b and the following Table.

Compound | IC50 (ug/ml) HUVEC [2] [µg/mL] | Cell Survival (%), 1 mg/ml of polypeptide, HUVEC [2] [%] | IC50 (ug/ml) HepG2 (tumor cell HepG2) [µg/mL] | Cell Survival (%), 1 mg/ml of polypeptide, HepG2 (tumor cell HepG2) [%] | IC50 (LS174T (Colon cancer)) [µg/mL] | Cell Survival (%) at a polypeptide concentration of 1 mg/ml (LS174T (Colon cancer)) [%] | IC50 (SPC-A-1 (lung carcinoma)) [µg/mL] | Cell Survival (%) at a polypeptide concentration of 1 mg/ml (SPC-A-1 (lung carcinoma)) [%] | IC50 (A549 (lung carcinoma)) [µg/mL] | Cell Survival (%) at a polypeptide concentration of 1 mg/ml (A549 (lung carcinoma)) [%] | IC50 [3] [µg/mL] | Cell Survival (%) at a polypeptide concentration of 1 mg/ml [3] [%] | IC50 (BEL7402 (Liver cancer)) [µg/mL] | Cell Survival (%) at a polypeptide concentration of 1 mg/ml (BEL7402 (Liver cancer)) [%] | IC50 (SMMC7721 (Liver cancer)) [µg/mL] | Cell Survival (%) at a polypeptide concentration of 1 mg/ml (SMMC7721 (Liver cancer)) [%] | IC50 [4] [µg/mL] | Cell Survival (%) at a polypeptide concentration of 1 mg/ml [4] [%] | time after being added into the culture medium at which the polypeptide acts on the cells [5] [h] | state of cells at 24 hours [5] | other results
N.N.[Cl][Pt][Cl] [DDP, Cisplatin] | – | – | – | – | – | – | – | – | – | – | – | – | – | – | – | – | – | – | – | – | Tumor inhibitor rate (%) ([1]; DDP 2 mg/kg/day ip 7 days alone or with polypeptide 15 mg/kg or endostatin/endostar 50 mg/kg sc 2 times per day 21 days): 24.8%; Tumor inhibitor rate (%) ([1]; DDP 6 mg/kg/day ip 7 days (high dose)): 81.9%; animals with residual tumor ([1]; of 6 animals, combination with DDP 2 mg/kg, DDP alone 6 mg/kg): 6
CC[C@H](C)[C@H](NC(=O)CNC(=O)[C@H](CCCNC(=N)N)NC(=O)[C@H](CCSC)NC(=O)CNC(=O)CNC(=O)[C@H](CO)NC(=O)[C@H](CC(C)C)NC(=O)[C@H](CO)NC(=O)[C@H](CO)NC(=O)[C@H](CC(N)=O)NC(=O)[C@H](CC(C)C)NC(=O)[C@H](C)NC(=O)[C@@H](NC(=O)[C@H](CC(C)C)NC(=O)[C@H](Cc1c[nH]cn1)NC(=O)[C@H](CC(C)C)NC(=O)[C@@H](NC(=O)[C@@H]1CCCN1C(=O)[C@H](CCC(N)=O)NC(=O)[C@H](Cc1ccccc1)NC(=O)[C@H](CC(=O)O)NC(=O)[C@H](CCCNC(=N)N)NC(=O)[C@H](Cc1c[nH]cn1)NC(=O)[C@@H](NC(=O)[C@H](Cc1c[nH]cn1)NC(C)=O)[C@@H](C)O)C(C)C)C(C)C)C(=O)N[C@@H](CCCNC(=N)N)C(=O)NCC(=O)N[C@@H](C)C(=O)N[C@@H](CC(=O)O)C(N)=O [Polypeptide P2T2S18] (Ac-HTHRDFQPVLHLVALNSSLSGGMRGIRGAD-NH2) | 66.7 (≈ 20.3 µM) | 2 | 76.9 (≈ 23.4 µM) | 4 | 84.7 (≈ 25.8 µM) | 1 | 80.6 (≈ 24.5 µM) | 16 | 72.5 (≈ 22.1 µM) | 18 | 66.7 (≈ 20.3 µM) | 7 | 64.9 (≈ 19.8 µM) | 4 | 76.9 (≈ 23.4 µM) | 9 | 78.1 (≈ 23.8 µM) | 3 | 2 | only cell debrises left | Cell Survival (%) at a polypeptide concentration of 120 μM ([2]; 6 h, 120): 2%; reduction of IC50 concentration as compared to that of P2 ([2]; HUVEC and HepG2): about 10 folds; IC50 concentration as fraction of IC50 concentration of P2 (SPC-A-1 (lung carcinoma); all seven tumor cell lines of Example 10): less than 1/10; manner of induced cell death ([5]; optical microscope): cells did not shrink. On the contrary, they extremely swelled; Tumor inhibitor rate (%) [6]: 76.7%; toxic reaction ([6]; BEL7404 model, same regimens): did not produce toxic reaction
CC[C@H](C)[C@H](NC(=O)CNC(=O)[C@H](CCCNC(=N)N)NC(=O)[C@H](CCSC)NC(=O)CNC(=O)CNC(=O)[C@H](CO)NC(=O)[C@H](CC(C)C)NC(=O)[C@@H]1CCCN1C(=O)[C@H](CO)NC(=O)[C@H](CC(N)=O)NC(=O)[C@H](CC(C)C)NC(=O)[C@H](C)NC(=O)[C@@H](NC(=O)[C@H](CC(C)C)NC(=O)[C@H](Cc1c[nH]cn1)NC(=O)[C@H](CC(C)C)NC(=O)[C@@H](NC(=O)[C@@H]1CCCN1C(=O)[C@H](CCC(N)=O)NC(=O)[C@H](Cc1ccccc1)NC(=O)[C@H](CC(=O)O)NC(=O)[C@H](CCCNC(=N)N)NC(=O)[C@H](Cc1c[nH]cn1)NC(=O)[C@H](CO)NC(=O)[C@H](Cc1c[nH]cn1)NC(C)=O)C(C)C)C(C)C)C(=O)N[C@@H](CCCNC(=N)N)C(=O)NCC(=O)N[C@@H](C)C(=O)N[C@@H](CC(=O)O)C(N)=O [Polypeptide P2] (Ac-HSHRDFQPVLHLVALNSPLSGGMRGIRGAD-NH2) | 733.4 (≈ 224 µM) | 25 | 1033.4 (≈ 315 µM) | 41 | 1683.8 (≈ 513 µM) | 95 | 1111.8 (≈ 339 µM) | 48 | 1312.2 (≈ 400 µM) | 57 | 863.1 (≈ 263 µM) | 42 | 732.9 (≈ 223 µM) | 20 | 1030.2 (≈ 314 µM) | 42 | 860.9 (≈ 262 µM) | 40 | 4 | basically died | Tumor inhibitor rate (%) [6]: 33.7%

Source: patent US10351613B2, “Polypeptide for inhibition of tumor” (G-Bio Pharma Tech Co., Ltd., priority 2015, dated 2019)
